The subject of assay [1] is vascular reactivity (methoxamine). Put plainly: Vascular reactivity to methoxamine in pithed rats perfused with endotoxin (EDTX). The format is in vivo, Male Sprague Dawley rats. As to conditions: for inhibition of vascular hyporeactivity: pithed rats, endotoxin 300 μg/kg/h, 60 min. As to the method: Male Sprague Dawley rats (280-320 g) were pithed and perfused continuously with endotoxin (EDTX, Escherichia Coli lipopolysaccharide OIII: B4; 300 μg/kg/h) for 60 min.

A short description of assay [2]: Blood pressure in pithed rats perfused with endotoxin. As to conditions: endotoxin 300 μg/kg/h, 60 min. The format is in vivo, Male Sprague Dawley rats. Here is the method: Male Sprague Dawley rats (280-320 g) were pithed and perfused continuously with endotoxin (EDTX, Escherichia Coli lipopolysaccharide OIII: B4; 300 μg/kg/h) for 60 min. […] A 60 min perfusion of endotoxin lipopolysaccharide (300 μg/kg/h) to pithed rats led to hypotension and impaired the vascular reactivity to pressor agents as observed in septic and endotoxinic shock in human. […] Their effects on blood pressure are however less marked. Association of blockers of cyclooxygenase (aspirin, indomethacin for instance . . . ) and blockers of EDRF results on a highly significative synergistic protective effect in both vascular hyperactivity and decrease of blood pressure induced by shock.

In the next assay the test system is EDRF. Put plainly: Restoration of depressed response to catecholamines / inhibition of vascular hyporeactivity (general statement).
Another assay concerns thoracic aorta rings. The assay is described as follows: Contractile responses of thoracic aorta rings from endotoxin-treated rats (PE-induced contraction, loss of tonicity), organ bath. Further details: species or system Sprague Dawley rats. Particulars: rings from endotoxin-treated animals; compounds of the invention at 10, 30 or 100 μM, with or without endothelium. As to the method: Sprague Dawley rats (220-330 g) received a 10 mg/kg ip injection of Escherichia Coli endotoxin (0114B4 Sigma). After 3 hours, rats were sacrificed by cervical dislocation and the thoracic aorta removed and cleaned of the surrounding tissue. Rings 2 mm wide were suspended under a tension of 2 g at 37° C. in organ bath containing 10 ml of Krebs Henseleit physiological solution and gassed with 95% O2 /5% CO2. Contractile responses were measured using force displacement transducers (Auguet M., Delaflotte S., P. E. Chabrier, P. Braquet Comparative effects of endotelin and phorbol 12-13 dibutyrate in rat aorta. Life Sci. 45, 21, 2051-2059, 1989).
In some experiments, the endothelium was gently disrupted (-E). Phenylephrine (PE) induced contraction was stable over the time in control rings of animals receiving saline solution (0.9% NaCl) with (E+) or without (E-) endothelium. The arginine derivative (10, 30 or 100 μM) had no significant effect per se.
This phenomenon was accentuated with intact endothelium (E+).
In some experiments, the compounds of the invention were introduced in the bath 105 minutes after PE when the tissue had completely its tonicity. Under these conditions, the compounds of the invention, alone, were able to curatively and totally restore the contraction and therefore contribute extensively to vascular hyporesponsiveness to vasoconstrictor agents in shock. […]

The values below come from patent US5081148A, “Blocking agents of EDRF effect or formation for the treatment of shock” (Societe de Conseils de Recherches et d'Applications …, priority 1989, dated 1992).

In assay [1] (Rattus norvegicus, control rats, cumulative dose-response), `COc1ccc(OC)c(C(O)C(C)N)c1` (stereo not drawn) [methoxamine, reference compound] registered an ED50 of 0.079 ± 0.009 mg/kg.
As to `CNC(=N)NCCC[C@H](N)C(=O)O` [L-NMMA, L-N-monomethyl arginine], the “inhibition of vascular hyporeactivity” value in assay [1] was “inhibited in a dose dependent manner”. For the same compound, the “effects on blood pressure” value in assay [2] is recorded as “less marked”. Further, the “restoration of depressed response to catecholamines and inhibition of vascular hyporeactivity” value with EDRF was “able to restore depressed response to catecholamines and to effectively inhibit vascular hyporeactivity”.
On to `N=C(N)NCCC[C@H](N)C(=O)O` [L-arginine], for which the “effect on loss of tonicity in endotoxin treated preparation” value in the assay on thoracic aorta rings is reported as “enhanced the loss of tonicity”.
`COC(=O)[C@@H](N)CCCNC(=N)N[N+](=O)[O-]` [L-NAME, L-nitroarginine methyl ester]: the “inhibition of vascular hyporeactivity” value in assay [1] is “inhibited in a dose dependent manner”. For the same compound, the “effects on blood pressure” value in assay [2] is on record as “less marked”. Further, in the assay on EDRF, the “restoration of depressed response to catecholamines and inhibition of vascular hyporeactivity” value was “able to restore depressed response to catecholamines and to effectively inhibit vascular hyporeactivity”.
On to `CC(=N)NCCC[C@H](N)C(=O)O` [L-NIO, L-iminoethylornithine], for which the “inhibition of vascular hyporeactivity” value in assay [1] is “inhibited in a dose dependent manner”. In addition, in assay [2], the “effects on blood pressure” value is reported as “less marked”. Further, in the assay with EDRF, the “restoration of depressed response to catecholamines and inhibition of vascular hyporeactivity” value is “able to restore depressed response to catecholamines and to effectively inhibit vascular hyporeactivity”.
`CNC(=N)NCCC[C@@H](N)C(=O)O` [(D) N-methyl arginine, reference compound]: the “activity in the field of the present invention” value in the assay on EDRF was “deprived of any activity”.
